Assay results reported in patent publication EP2345639A1, “Cyclic hydroxylamine derivatives, their preparation and use as antioxidants” (ABIOGEN PHARMA S.p.A., priority 2009, dated 2011).

How the values were obtained:
[1] = TEAC method (Trolox Equivalent Antioxidant Capacity Assay); assay type: biochemical; settings: ratio of gradient to gradient of Trolox; 650 nm, 37 °C, about 90 minutes
From the text: This assay is used to measure the total antioxidant activity of pure substances, biological fluids and plant compounds and is based on the reaction of antioxidants with the cation radical ABTS·^+ (2,2'-azinobis(3-ethylbenzothiazolin-6-sulphonate)). This cation radical is metastable and has to be generated just before the experiment by reacting ABTS with hydrogen peroxide in the presence of HRP. This radical can be reduced, with consequent loss of absorbance, by an antioxidant whose scavenging capacity can be measured spectrophotometrically at 650 nm. The test is carried out at 37 °C and the results are obtained from a comparison with Trolox (a synthetic antioxidant and hydrophilic analogue of vitamin E).
The ABTS solution S1 was prepared as follows: • 20 mg of ABTS were added to 50 mM of citric acid buffer (40 ml) at pH=4.5 and to the resulting solution there was added an aqueous solution of HRP (4.4 mg, 400 µl) and an aqueous solution of H2O2 (10 µl of a 30% solution diluted with 16.3 ml of water).
For each of the compounds (1)-(11), as synthesized above, there was prepared a 600 µM solution in water, methanol or DMSO according to its solubility, as well as a Trolox solution as reference.
Each solution was diluted to produce 6 solutions each at a concentration between 25 µM and 300 µM. From each of the diluted and divided solutions, there were withdrawn 20 µl to which 200 µl of solution S1 were then added.
The decrease in absorbance of each solution thus obtained was monitored at 650 nm until a stable value was reached (about 90 minutes).
For each set of 6 solutions and for the reference trolox solution, the absorption was given in graph form as a function of the amount of compound (nmol) in the solution. The gradient of the straight line obtained by linear interpolation was determined according to the least squares method. The TEAC value of each compound of the invention is given in the table below and is expressed as the ratio between the gradient of the resulting straight line and the gradient of the reference (trolox) straight line.

[2] = system: C6 cells (rat glioma) and BAEC cells (bovine aortic endothelial); assay: In vitro inhibition of CHP-induced oxidative stress (DCF fluorescence); assay type: cell-based; settings: 500 µM CHP, 4, 20, 100 and 500 µM compound, 30 minutes; depending on the concentrations and cell line
Protocol: The method used was essentially the one reported by Rüweler M. et al. ("Inhibition of peroxide-induced radical generation by plant polyphenols in C6 astroglioma cells" (2008) Toxicol in vitro 22, 1377-81), with a few minor modifications.
The cells were seeded in phenol-red free DMEM (Sigma Aldrich) into 96-well plates with 5% FBS and 20 mM HEPES at a density of 40,000 cells/well. After 48 hours, the medium was substituted by HBSS (Hanks' Balanced Salt Solution, Sigma) containing 10 µM of dihydro-2',7'-dichlorofluorescein diacetate (H2DCF-DA, Sigma Aldrich) and incubated in darkness for 30 minutes at 37 °C, in order to load the cells with fluorescent dye. H2DCF-DA was hydrolyzed enzymatically by the intracellular esterases to form non-fluorescent H2DCF, which was then rapidly oxidized to form 2',7'-dichlorofluorescein (DCF) being highly fluorescent in the presence of reactive species (RS). The intensity of DCF fluorescence is directly proportional to the amount of RS formed.
After carrying out two washes, the cells were exposed to 500 µM of CHP and various concentrations (4, 20, 100 and 500 µM) of the compounds of the invention for 30 minutes at 37 °C. Fluorescence was then measured, after cell washing, by a microplate reader at an excitation wavelength of 485 nm and an emission wavelength of 535 nm.
Six wells per plate per concentration of test composition (compound + CHP) and per control (HBSS without CHP) were measured and 12 wells were used as reference for CHP-induced stress. In addition, each 96-well plate contained 6 wells that received the highest concentration of the tested compounds without CHP, to investigate whether the compounds of the invention alone were able to induce cellular radical formation.
When using this assay, it should be borne in mind that DCF fluorescence is a generalized indicator of oxidative stress rather than of any particular reactive species, i.e. it is not a direct assay for H2O2 or other reactive species (Halliwell B, Whiteman M. (2004) "Measuring reactive species and oxidative damage in vivo and in cell culture: how should you do it and what do the results mean?" Br. J. Pharmacol. 142 231-255). Therefore, when an increase in DCF fluorescence induced by exposure of cells to CHP was measured, as was carried out in these assays, it was not possible to deduce which reactive species was responsible. Inhibition of CHP-induced fluorescence was evaluated by means of different concentrations of the compounds of the invention and comparative compounds such as Trolox and edaravone.

female CD-1 mice = assay: Acute toxicity study, intraperitoneal, single dose; settings: in vivo
Protocol: This study was carried out with the purpose of investigating the toxicity of a single dose of the listed compounds administered to ICR (CD-1) female mice. According to the current OECD guideline no.
The mice used were all female and were treated by intraperitoneal injection administration. The animals were observed individually and regularly for the first 4 hours and within 24 hours after administration, and then twice a day for the whole observation period. As soon as the animals were stabilized, observations at the weekend were undertaken once only during the day.
The evaluated parameters included the survival, body weight development, variations in skin and fur, changes in ocular, conjunctival and buccal mucous membranes, changes in activities of the respiratory, circulatory, autonomous and central nervous systems, changes in somatomotor activity and in behaviour.
Any appearance of tremors, convulsions, salivation, diarrhea, lethargy, drowsiness and coma were attentively and regularly monitored. At the end of the observation period, a post-mortem was carried out on all the animals.

Compound | TEAC [1] | Inhibition of CHP-induced fluorescence [2] | toxic effect (female CD-1 mice; Example 23) | toxic effect (female CD-1 mice; mouse)
CC1(C)CC(=O)C(C2CCCCN2O)C(=O)C1 (stereo not shown) [(3), 2-(1-hydroxypiperidin-2-yl)-5,5-dimethylcyclohexane-1,3-dione] | 1.0 |  |  | 
O=C1CCC(=O)C1C1COCCN1O (stereo not shown) [(7), 2-(4-hydroxymorpholin-3-yl)-cyclopentane-1,3-dione] | 1.5 |  |  | 
CC1=NN(c2ccccc2)C(=O)C1 [edaravone, reference compound] | 0.9 | 10-50% |  | 
O=c1oc2ccccc2c(O)c1C1COCCN1O (stereo not shown) [(10), 4-hydroxy-3-(4-hydroxymorpholin-3-yl)-2H-chromen-2-one] | 1.4 |  | no toxic effect | 
CC1(C)CC(=O)C(C2COCCN2O)C(=O)C1 (stereo not shown) [(4), 2-(4-hydroxymorpholin-3-yl)-5,5-dimethylcyclohexane-1,3-dione] | 1.2 | effective | no toxic effect | 
CC1=NN(c2ccccc2)C(=O)C1C1COCCN1O (stereo not shown) [(11), 4-(4-hydroxymorpholin-3-yl)-3-methyl-1-phenyl-1H-pyrazol-5(4H)-one] | 2.0 | effective |  | 
O=C1c2ccccc2C(=O)C1C1COCCN1O (stereo not shown) [(8), 2-(4-hydroxymorpholin-3-yl)-2H-indene-1,3-dione] | 1.5 | effective | no toxic effect | 
O=C1CC(c2ccccc2)CC(=O)C1C1COCCN1O (stereo not shown) [(5), 2-(4-hydroxymorpholin-3-yl)-5-phenylcyclohexane-1,3-dione] | 1.2 |  |  | no toxic effect
